The values that follow come from patent US12527796B2, “[6R]-MTHF—an efficient folate alternative in 5-fluorouracil based chemotherapy” (Isofol Medical AB, priority 2017, dated 2026).

In data set [1] the test system is metastatic colorectal carcinoma. The following applies: modulation of 5-FU with LV; cited from earlier work.
Data set [2] concerns pancreas cancer. The following applies: combined with 5-FU; cited from earlier work.
Data set [3] has as its system colorectal cancer. The conditions noted are these: Phase IIb; cited from earlier work.
For data set [4], the target named is Thymidylate Synthase (Lacticaseibacillus casei, UniProt P00469). The conditions noted are these: cited from earlier work.
Chain of Thymidylate Synthase (P00469 whole entry): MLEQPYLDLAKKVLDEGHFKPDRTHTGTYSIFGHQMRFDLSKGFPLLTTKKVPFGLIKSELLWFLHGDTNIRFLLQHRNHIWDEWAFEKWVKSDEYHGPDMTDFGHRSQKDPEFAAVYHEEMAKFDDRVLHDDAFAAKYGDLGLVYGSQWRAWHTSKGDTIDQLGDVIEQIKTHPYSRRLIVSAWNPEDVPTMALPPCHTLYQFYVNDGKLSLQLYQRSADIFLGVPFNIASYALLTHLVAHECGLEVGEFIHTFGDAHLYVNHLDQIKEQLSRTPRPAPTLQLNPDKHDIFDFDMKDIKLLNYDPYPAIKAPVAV
Data set [5] relates to stage IV colorectal cancer. Nature of the data set: ISO-CC-005 open-label Phase I/II dose cohort trial of [6R]-MTHF with 5-FU (response per RECIST 1.1, adverse events). The class given is in vivo, human. The text has this: As used herein, the term ORR shall refer to the Objective Response Rate, ie. the proportion of patients with reduction in tumor burden of a predefined amount. […] (Note: the appearance of one or more new lesions is also considered progression). Stable Disease (SD): • Neither sufficient shrinkage to qualify for PR nor sufficient increase to qualify for PD, taking as reference the smallest sum diameters while on study. ([…], Schwartz […], Ford R, et al. New response evaluation criteria in solid tumours: revised RECIST guideline (version 1.1). Eur J Cancer. 2009 January; 45(2):228-47) […] A maximum of 63 Stage IV CRC patients eligible for 1st, 2nd or 3rd line treatment are planned to be enrolled in this study disposed as follows: three to six patients in each dose cohort, and three additional patients in one dose cohort in each treatment arm according to the following study design (Table 1). [table] […] Dosing: Rapid i.v. bolus injections at a fixed dose of 30, 60, 120 or 240 mg/m^2, will be administered approximately 30 minutes after administration of 5-FU on Day 1 and Day 2 in each treatment cycle in all ^dose cohorts of the study (i.e. regardless of treatment arm). The regimen will be repeated every second week for up to eight (8) cycles, i.e. up to sixteen (16) weeks. 5-FU (5-fluorouracil) is formulated as injection solution. Dosing: 5-FU will be administered as i.v. bolus injections on Day 1 and Day 2 in each treatment cycle. In Arm #2 and Arm #3 of the study, 5-FU will be administered approximately 60 minutes after start of Oxaliplatin or Irinotecan administration, respectively (see description below). The regimen will be repeated every second week for up to eight (8) cycles, i.e. up to sixteen (16) weeks. ISO-CC-005 is an open clinical phase I/II tolerability and dose definition study designed to evaluate safety and define the [6R]-MTHF dose for continued development. It evaluates four doses of [6R]-MTHF in combination with 5-FU with or without the different combinations of irinotecan or oxaliplatin and bevacizumab in patients with metastatic Colorectal Cancer using 4 different protocols: • MOD+5-FU: [6R]-MTHF in combination with 5-FU only, similar to Nordic FLV protocol • MOD+[…] in combination with 5-FU and Irinotecan, similar to Nordic FLIRI protocol • MOD+FLOX: [6R]-MTHF in combination with 5-FU and Oxaliplatin, similar to Nordic FLOX protocol • MOFOX: [6R]-MTHF in combination with 5-FU and Oxaliplatin, similar to FOLFOX-6 protocol The patients belong to several treatment lines ranging from first to third and even fifth lines. The results of the study are regularly assessed, and the results from the group of patients undergoing 1st line treatment and partially the group of patients undergoing 2nd, 3rd and 5th line treatment have previously (in August 2017) and again (December 2017) been analyzed. The clinical study is still ongoing. […] (see FIG. 2). Four (4) 1st line patients could not be followed for the additional 8 weeks' treatment due to study protocol formalities. No further 1st line patients had been analysed at this point.

[6] abbreviates: 1st line patients, 8 weeks' treatment.
Where [7] appears, read: 30 patients, 1st, 2nd, 3rd and 5th line, after 8 weeks' treatment.

Turning to `Nc1nc2c(c(=O)[nH]1)N(C=O)C(CNc1ccc(C(=O)N[C@@H](CCC(=O)O)C(=O)O)cc1)CN2` (stereo partly drawn) [Leucovorin], the “time-to-progression (TTP) of disease” value in data set [1] is on record as “prolongation of the time-to-progression (TTP)”.
Regarding `Nc1nc2c(c(=O)[nH]1)N1CN(c3ccc(C(=O)N[C@@H](CCC(=O)[O-])C(=O)[O-])cc3)CC1CN2.[Ca+2]` (stereo partly drawn) [CoFactor, [6R,S]-5,10-methylene-THF Ca salt], the “patients with clinical benefit, defined as stable disease or tumor response” value in data set [2] was 40%. In data set [3], the “differences between the study arms (CoFactor vs leucovorin) with regard to efficacy or safety” value was “no significant differences”.
Regarding `Nc1nc2c(c(=O)[nH]1)N1CN(c3ccc(C(=O)N[C@@H](CCC(=O)O)C(=O)O)cc3)C[C@@H]1CN2` (single isomer, unassigned) [[6S]-isomer], the “effect on the natural [6R]-isomer as co-substrate for TS” value in data set [4] is listed as “partial competitive inhibitor”.
Consider `Nc1nc2c(c(=O)[nH]1)N1CN(c3ccc(C(=O)N[C@@H](CCC(=O)O)C(=O)O)cc3)C[C@H]1CN2` [[6R]-MTHF, [6R]-5,10-methylenetetrahydrofolate], for which, in data set [5] (setting [6]), the ORR is 50% and the “patients with clinical benefit, defined as stable disease or partial response” value was 100%. The “patients showing clinical benefit” value in data set [5] (1st line patients, 16 weeks of treatment) is given as 100%. In addition, the “patients with clinical benefit, defined as stable disease or partial response” value in data set [5] (2nd, 3rd or 5th line patients (25), after 8 weeks' treatment) was 64%. Moreover, in data set [5] (setting [7]), the “patients with partial response” value is on record as 27%, the “patients with progressive disease” value stood at 13% and the “patients with stable disease” value was 60%. Besides, the “clinical benefit, defined as stable disease or tumor response, treated patients” value in data set [5] ([6R]-MTHF combined with 5-FU) is listed as > 90%. In addition, the “ORRs (objective response rates)” value in data set [5] (colorectal cancer patients, initial 5-FU followed by [6R]-MTHF) is given as 50-60%. The “progression in the cancer after the initial 8 weeks' treatment” value in data set [5] (eight 1st line patients, 16 weeks of treatment) is recorded as “no progression”. Moreover, the “toxicity of 5-FU when combined with [6R]-MTHF, compared to 5-FU with other folate adjuvants” value in data set [5] (in vivo) is “reduced”. Moreover, in data set [5] (of eight 1st line patients), the “patients showing Partial Response at 16 weeks” value was found to be 5 patients and the “patients showing Stable Disease at 16 weeks” value amounted to 3 patients. Besides, the “treated patients with at least a 25% decrease in the sum of the diameters of target lesions” value in data set [5] (reference baseline sum diameters, with 5-FU) is ~65%.
